Tests used:
[1] = molecular target: isolated recombinant JAK1 kinase domain (Homo sapiens (Human), UniProt P23458); test: JAK1 enzyme assay (Caliper LabChip, Ki); assay type: biochemical; details: read-out: JAK1 Ki
Method in brief: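 Recombinant human JAK1 kinase domain phosphorylating an N-terminally 5-carboxyfluorescein-labelled JAK3-derived peptide, 30 min at 22 °C, stopped with EDTA (50 mM final). Phosphorylated fraction of total peptide read by Caliper LabChip mobility shift; Ki from Morrison tight-binding fit corrected for ATP competition (Ki=Ki,app/(1+[ATP]/Km,app)).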

[2] = molecular target: isolated recombinant JAK2 kinase domain (Homo sapiens (Human), UniProt O60674); test: JAK2 enzyme assay (Caliper LabChip, Ki); assay type: biochemical
Chain of isolated recombinant JAK2 kinase domain (O60674 849-1124): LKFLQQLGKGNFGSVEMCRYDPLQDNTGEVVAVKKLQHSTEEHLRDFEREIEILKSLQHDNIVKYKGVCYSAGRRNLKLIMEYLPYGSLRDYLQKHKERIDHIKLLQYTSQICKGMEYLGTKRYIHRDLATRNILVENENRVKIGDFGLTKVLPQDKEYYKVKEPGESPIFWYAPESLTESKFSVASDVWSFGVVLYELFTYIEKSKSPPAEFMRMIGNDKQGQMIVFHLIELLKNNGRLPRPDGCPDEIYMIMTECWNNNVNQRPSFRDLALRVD
Method in brief: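 Recombinant human JAK1 or JAK2 kinase domain phosphorylating a 5-carboxyfluorescein-labelled JAK3-derived peptide; 30 min at 22 °C, stopped with EDTA (50 mM final). Phosphorylated product measured as a fraction of total peptide by Caliper LabChip mobility shift.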

[3] = test system: JAK1-dependent STAT6 phosphorylation downstream of IL-13 stimulation in BEAS-2B human bronchial epithelial cells; test: JAK1 pathway assay in BEAS-2B cells (IL-13-pSTAT6, MSD); assay type: cell-based; details: Homo sapiens, BEAS-2B, BEAS-2B cells, IL-13 stimulation; read-out: IL-13 p-STAT6 BEAS-2B IC50

Chain of isolated recombinant JAK1 kinase domain (P23458 875-1153): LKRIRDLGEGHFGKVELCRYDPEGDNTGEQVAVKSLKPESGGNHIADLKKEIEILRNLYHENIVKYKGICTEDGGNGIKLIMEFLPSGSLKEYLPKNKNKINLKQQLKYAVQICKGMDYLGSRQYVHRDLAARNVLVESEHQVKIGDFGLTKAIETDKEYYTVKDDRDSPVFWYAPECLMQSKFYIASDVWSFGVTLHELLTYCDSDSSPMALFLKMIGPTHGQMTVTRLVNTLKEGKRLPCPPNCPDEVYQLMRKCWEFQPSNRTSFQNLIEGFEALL

SMILES: COC(=O)Nc1nn(C2(CC#N)CCN(Cc3ccc(-c4ccoc4)c(O)c3)CC2F)cc1C(N)=O (stereo not drawn) [Example 244, methyl N-[4-carbamoyl-1-[4-(cyanomethyl)-3-fluoro-1-[[4-(3-furyl)-3-hydroxy-phenyl]methyl]-4-piperidyl]pyrazol-3-yl]carbamate]
- Ki [1]: 0.2 nM
- Ki [2]: 0.37 nM
- IC50 [3]: 67 nM

SMILES: N#CCC1(n2cc(C(N)=O)c(NC(=O)C3CC3)n2)CCC(Nc2ccc(-c3ccccc3)cc2)CC1 (stereo not drawn) [Example 245, 1-[1-(cyanomethyl)-4-(4-phenylanilino)cyclohexyl]-3-(cyclopropanecarbonylamino) pyrazole-4-carboxamide]
- Ki [1]: 0.23 nM
- Ki [2]: 0.92 nM
- IC50 [3]: 14 nM

SMILES: COC(=O)Nc1nn(C2(CC#N)CCN(Cc3ccc(-c4ccc(C)o4)cc3)CC2F)cc1C(N)=O (stereo not drawn) [Example 246, methyl N-[4-carbamoyl-1-[4-(cyanomethyl)-3-fluoro-1-[[4-(5-methyl-2-furyl)phenyl]methyl]-4-piperidyl]pyrazol-3-yl]carbamate]
- Ki [1]: 0.35 nM
- Ki [2]: 0.52 nM
- IC50 [3]: 19 nM

SMILES: COC(=O)Nc1nn(C2(CC#N)CCN(Cc3ccc(-c4ccc(C)o4)c(O)c3)CC2F)cc1C(N)=O (stereo not drawn) [Example 247, methyl N-[4-carbamoyl-1-[4-(cyanomethyl)-3-fluoro-1-[[3-hydroxy-4-(5-methyl-2-furyl)phenyl]methyl]-4-piperidyl]pyrazol-3-yl]carbamate]
- Ki [1]: 0.35 nM
- Ki [2]: 0.43 nM
- IC50 [3]: 26 nM

SMILES: COC(=O)Nc1nn(C2(CC#N)CCN(Cc3c(F)cc(-c4ccccc4)c(O)c3F)CC2F)cc1C(N)=O (stereo not drawn) [Example 248, Methyl N-[4-carbamoyl-1-[4-(cyanomethyl)-1-[(2,6-difluoro-3-hydroxy-4-phenylphenyl)methyl]-3-fluoropiperidin-4-yl]-1H-pyrazol-3-yl]carbamate]
- Ki [1]: 0.28 nM
- Ki [2]: 0.25 nM
- IC50 [3]: 30 nM

SMILES: COC(=O)Nc1nn(C2(CC#N)CCN(Cc3ccc(-c4csc(C)n4)cc3)CC2F)cc1C(N)=O (stereo not drawn) [Example 249, methyl N-[4-carbamoyl-1-[4-(cyanomethyl)-3-fluoro-1-[[4-(2-methylthiazol-4-yl)phenyl]methyl]-4-piperidyl]pyrazol-3-yl]carbamate]
- Ki [1]: 0.52 nM
- Ki [2]: 0.56 nM
- IC50 [3]: 26 nM

SMILES: Cc1c(CN2CCC(CC#N)(n3cc(C(N)=O)c(NC(=O)C4CC4C#N)n3)C(F)C2)ccc(-c2ccccc2)c1O (stereo not drawn) [Example 250, 3-[(2-cyanocyclopropanecarbonyl)amino]-1-[4-(cyanomethyl)-3-fluoro-1-[(3-hydroxy-2-methyl-4-phenyl-phenyl)methyl]-4-piperidyl]pyrazole-4-carboxamide; formic acid]
- Ki [1]: 0.31 nM
- Ki [2]: 0.84 nM
- IC50 [3]: 80 nM

SMILES: COC(=O)Nc1nn(C2(CC#N)CCN(Cc3cnc(-c4ccccc4)cc3F)CC2F)cc1C(N)=O (stereo not drawn) [Example 251, methyl N-[4-carbamoyl-1-[4-(cyanomethyl)-3-fluoro-1-[(4-fluoro-6-phenyl-3-pyridyl)methyl]-4-piperidyl]pyrazol-3-yl]carbamate]
- Ki [1]: 0.34 nM
- Ki [2]: 0.3 nM
- IC50 [3]: 30 nM

SMILES: CCc1nc(-c2ccc(CN3CCC(CC#N)(n4cc(C(N)=O)c(NC(=O)OC)n4)C(F)C3)cc2)cs1 (stereo not drawn) [Example 252, methyl N-[4-carbamoyl-1-[4-(cyanomethyl)-1-[[4-(2-ethylthiazol-4-yl)phenyl]methyl]-3-fluoro-4-piperidyl]pyrazol-3-yl]carbamate]
- Ki [1]: 0.3 nM
- Ki [2]: 0.52 nM
- IC50 [3]: 22 nM

SMILES: Cc1cnn(-c2ccc(CN3CCC(CC#N)(n4cc(C(N)=O)c(NC(=O)C5CC5)n4)CC3)cc2)n1 [Example 253, 1-[4-(cyanomethyl)-1-[[4-(4-methyltriazol-2-yl)phenyl]methyl]-4-piperidyl]-3-(cyclopropanecarbonylamino) pyrazole-4-carboxamide]
- Ki [1]: 1 nM
- Ki [2]: 5.6 nM
- IC50 [3]: 56 nM

SMILES: C#CC1CC1C(=O)Nc1nn(C2(CC#N)CCN(Cc3ccc(-c4ccccc4)cc3)CC2F)cc1C(N)=O (stereo not drawn) [Example 254, 1-[4-(cyanomethyl)-3-fluoro-1-[(4-phenylphenyl)methyl]-4-piperidyl]-3-[(2-ethynylcyclopropanecarbonyl)amino]pyrazole-4-carboxamide]
- Ki [1]: 0.43 nM
- Ki [2]: 0.82 nM
- IC50 [3]: 43 nM

SMILES: N#CCC1(n2cc(C(N)=O)c(NC(=O)C3CC3)n2)CCN(Cc2ccc(-c3ncco3)cc2)CC1F (stereo not drawn) [Example 255, 1-[4-(cyanomethyl)-3-fluoro-1-[(4-oxazol-2-ylphenyl)methyl]-4-piperidyl]-3-(cyclopropanecarbonylamino) pyrazole-4-carboxamide]
- Ki [1]: 1.2 nM
- Ki [2]: 0.96 nM
- IC50 [3]: 70 nM

SMILES: COC(=O)Nc1nn(C2(CC#N)CCN(Cc3cc(O)c(-c4ccc(C)o4)cc3F)CC2F)cc1C(N)=O (stereo not drawn) [Example 256, methyl N-[4-carbamoyl-1-[4-(cyanomethyl)-3-fluoro-1-[[2-fluoro-5-hydroxy-4-(5-methyl-2-furyl)phenyl]methyl]-4-piperidyl]pyrazol-3-yl]carbamate]
- Ki [1]: 0.15 nM
- Ki [2]: 0.89 nM
- IC50 [3]: 47 nM

SMILES: COC(=O)Nc1nn(C2(CC#N)CCN(Cc3ccc(C4=CCCCC4)cc3)CC2F)cc1C(N)=O (stereo not drawn) [Example 257, methyl N-[4-carbamoyl-1-[4-(cyanomethyl)-1-[[4-(cyclohexen-1-yl)phenyl]methyl]-3-fluoro-4-piperidyl]pyrazol-3-yl]carbamate]
- Ki [1]: 0.73 nM
- Ki [2]: 1.3 nM
- IC50 [3]: 52 nM

SMILES: COC(=O)Nc1nn(C2(CC#N)CCN(Cc3ccc(C4=CCCCC4)c(O)c3)CC2F)cc1C(N)=O (stereo not drawn) [Example 258, methyl N-[4-carbamoyl-1-[4-(cyanomethyl)-1-[[4-(cyclohexen-1-yl)-3-hydroxy-phenyl]methyl]-3-fluoro-4-piperidyl]pyrazol-3-yl]carbamate]
- Ki [1]: 0.34 nM
- Ki [2]: 0.29 nM
- IC50 [3]: 34 nM

SMILES: C=C(C)c1ccc(CN2CCC(CC#N)(n3cc(C(N)=O)c(NC(=O)C4CC4)n3)C(F)C2)cc1 (stereo not drawn) [Example 259, 1-[4-(cyanomethyl)-3-fluoro-1-[(4-isopropenylphenyl)methyl]-4-piperidyl]-3-(cyclopropanecarbonylamino) pyrazole-4-carboxamide]
- Ki [1]: 0.84 nM
- Ki [2]: 1.8 nM
- IC50 [3]: 50 nM

SMILES: C#Cc1ccc(CN2CCC(CC#N)(n3cc(C(N)=O)c(NC(=O)C4CC4)n3)C(F)C2)cc1 (stereo not drawn) [Example 260, 1-[4-(cyanomethyl)-1-[(4-ethynylphenyl)methyl]-3-fluoro-4-piperidyl]-3-(cyclopropanecarbonylamino) pyrazole-4-carboxamide]
- Ki [1]: 0.25 nM
- Ki [2]: 0.35 nM
- IC50 [3]: 32 nM

SMILES: N#CCC1(n2cc(C(N)=O)c(NC(=O)C3CC3)n2)CCN(Cc2ccc(C3=CCCC3)cc2)CC1F (stereo not drawn) [Example 261, 1-[4-(cyanomethyl)-1-[[4-(cyclopenten-1-yl)phenyl]methyl]-3-fluoro-4-piperidyl]-3-(cyclopropanecarbonylamino) pyrazole-4-carboxamide]
- Ki [1]: 0.56 nM
- Ki [2]: 0.82 nM
- IC50 [3]: 21 nM

SMILES: COC(=O)Nc1nn(C2(CC#N)CCN(Cc3ccc(-c4ccccc4)c(O)c3F)CC2F)cc1C(N)=O (stereo not drawn) [Example 263, methyl N-[4-carbamoyl-1-[4-(cyanomethyl)-3-fluoro-1-[(2-fluoro-3-hydroxy-4-phenyl-phenyl)methyl]-4-piperidyl]pyrazol-3-yl]carbamate]
- Ki [1]: 0.3 nM
- Ki [2]: 0.24 nM
- IC50 [3]: 25 nM

SMILES: COC(=O)Nc1nn(C2(CC#N)CCN(Cc3ccc(C4=CCCCC4)nc3F)CC2F)cc1C(N)=O (stereo not drawn) [Example 264, methyl N-[4-carbamoyl-1-[4-(cyanomethyl)-1-[[6-(cyclohexen-1-yl)-2-fluoro-3-pyridyl]methyl]-3-fluoro-4-piperidyl]pyrazol-3-yl]carbamate]
- Ki [1]: 0.79 nM
- Ki [2]: 1.4 nM
- IC50 [3]: 88 nM

SMILES: CCc1ccc(C2(F)CN(C3CCC(CC#N)(n4cc(C(N)=O)c(NC(=O)C5CC5)n4)CC3)C2)cc1 (stereo not drawn) [Example 265, 1-[1-(cyanomethyl)-4-[3-(4-ethylphenyl)-3-fluoro-azetidin-1-yl]cyclohexyl]-3-(cyclopropanecarbonylamino) pyrazole-4-carboxamide]
- Ki [1]: 1.1 nM
- Ki [2]: 4.2 nM
- IC50 [3]: 88 nM

SMILES: COC(=O)Nc1nn(C2(CC#N)CCC(Nc3ccc(-c4ccco4)cc3)CC2)cc1C(N)=O (stereo not drawn) [Example 266, methyl N-[4-carbamoyl-1-[1-(cyanomethyl)-4-[4-(2-furyl)anilino]cyclohexyl]pyrazol-3-yl]carbamate]
- Ki [1]: 0.77 nM
- Ki [2]: 5 nM
- IC50 [3]: 57 nM

SMILES: COC(=O)Nc1nn(C2(CC#N)CCN(Cc3ccc(-n4ncc(C)n4)cc3)CC2F)cc1C(N)=O (stereo not drawn) [Example 267, methyl N-[4-carbamoyl-1-[4-(cyanomethyl)-3-fluoro-1-[[4-(4-methyltriazol-2-yl)phenyl]methyl]-4-piperidyl]pyrazol-3-yl]carbamate]
- Ki [1]: 0.86 nM
- Ki [2]: 0.84 nM
- IC50 [3]: 51 nM

SMILES: COC(=O)Nc1nn(C2(CC#N)CCN(Cc3ccc(C4=CCCC4)cc3)CC2F)cc1C(N)=O (stereo not drawn) [Example 268, methyl N-[4-carbamoyl-1-[4-(cyanomethyl)-1-[[4-(cyclopenten-1-yl)phenyl]methyl]-3-fluoro-4-piperidyl]pyrazol-3-yl]carbamate]
- Ki [1]: 0.9 nM
- Ki [2]: 1.9 nM
- IC50 [3]: 43 nM
